Assay results: patent US20230023092A1, “TREATMENT OF DEPRESSION AND OTHER VARIOUS DISORDERS WITH PSILOCYBIN” (COMPASS […], priority 2019, published 2023)

How the values were obtained:
healthy subjects [1] = assay: Five-Dimensional Altered States of Consciousness (5D-ASC) questionnaire; type: in vivo, human; conditions: for 5D-ASC Anxiety, Mean / 5D-ASC Audio-visual synaesthesia, Mean / 5D-ASC Auditory alteration, Mean / 5D-ASC Blissful state, Mean / 5D-ASC Changed meaning of percepts, Mean / 5D-ASC Complex imagery, Mean / 5D-ASC Disembodiment, Mean / 5D-ASC Dread of ego dissolution, Mean / 5D-ASC Elementary imagery, Mean / 5D-ASC Experience of unity, Mean / 5D-ASC Impaired control and cognition, Mean / 5D-ASC Insightfulness, Mean / 5D-ASC Oceanic boundlessness, Mean / 5D-ASC Spiritual experience, Mean / 5D-ASC Vigilance reduction, Mean / 5D-ASC Visual restructuralisation, Mean: Post-Treatment Day 0, LS mean; for 5D-ASC Anxiety, Mean difference / 5D-ASC Audio-visual synaesthesia, Mean difference / 5D-ASC Auditory alteration, Mean difference / 5D-ASC Blissful state, Mean difference / 5D-ASC Changed meaning of percepts, Mean difference / 5D-ASC Complex imagery, Mean difference / 5D-ASC Disembodiment, Mean difference / 5D-ASC Dread of ego dissolution, Mean difference / 5D-ASC Elementary imagery, Mean difference / 5D-ASC Experience of unity, Mean difference / 5D-ASC Impaired control and cognition, Mean difference / 5D-ASC Insightfulness, Mean difference / 5D-ASC Oceanic boundlessness, Mean difference / 5D-ASC Spiritual experience, Mean difference / 5D-ASC Vigilance reduction, Mean difference / 5D-ASC Visual restructuralisation, Mean difference: Post-Treatment Day 0
From the text: In some embodiments, the Five Dimension Altered States of Consciousness questionnaire (5D-ASC) is utilized to evaluate the safety and/or efficacy of psilocybin. […] The 5 dimensions include oceanic boundlessness, anxious ego dissolution, visionary restructuralization, auditory alterations and reduction of vigilance.

healthy subjects [2] = assay: Positive and Negative Affect Schedule (PANAS); type: in vivo, human; conditions: for PANAS-Negative, change from baseline, Mean / PANAS-Positive, change from baseline, Mean: Post-Treatment Day 0, LS mean; for PANAS-Negative, change from baseline, Mean difference / PANAS-Positive, change from baseline, Mean difference: Post-Treatment Day 0
From the text: In some embodiments, the Positive and Negative Affect Schedule (PANAS) is used to evaluate the safety and/or efficacy of psilocybin. The PANAS measures the acute emotional drug effects and comprises 2 mood scales that measure positive and negative affect. Positive affect refers to the propensity to experience positive emotions and interact with others positively. Negative affect involves experiencing the world in a more negative way. Subjects respond to 10 questions associated with negative affect and 10 questions associated with positive affect. The questions are scaled using a 5-point scale that ranges from “slightly or not at all (1)” to “extremely (5)”. A total higher score on the positive affect questions indicates more of a positive effect while a lower score on the negative affect questions indicates less of a negative affect. In some embodiments, after treating according to the methods of the disclosure, a subject experiences a decrease in negative affect score of the PANAS, between about 5% and about 100%, for example about 5%, about 10%, about 15%, about 20%, about 25%, about 30%, about 35%, about 40%, about 45%, about 50%, about 55%, about 60%, about 65%, about 70%, about 75%, about 80%, about 85%, about 90%, about 95%, or about 100%, compared to prior to treatment. In some embodiments, after treating according to the methods of the disclosure, a subject experiences an increase in positive affect score of the PANAS, between about 5% and about 100%, for example about 5%, about 10%, about 15%, about 20%, about 25%, about 30%, about 35%, about 40%, about 45%, about 50%, about 55%, about 60%, about 65%, about 70%, about 75%, about 80%, about 85%, about 90%, about 95%, or about 100%, about 110%, about 120%, about 130%, about 140%, about 150%, about 160%, about 170%, about 180%, about 190%, about 200%, about 210%, about 220%, about 230%, about 240%, about 250%, about 260%, about 270%, about 280%, about 290%, or about 300%, or more, compared to prior to treatment.
The Positive and Negative Affects Schedule (PANAS) score was also evaluated to measure the effect of psilocybin.

CN(C)CCc1c[nH]c2cccc(OP(=O)(O)O)c12 [Psilocybin, psilocybin]
5D-ASC Anxiety, Mean (healthy subjects [1]; Psilocybin 10 mg): 15.7 | 5D-ASC Audio-visual synaesthesia, Mean (healthy subjects [1]; Psilocybin 10 mg): 74.7 | 5D-ASC Auditory alteration, Mean (healthy subjects [1]; Psilocybin 10 mg): 20.3 | 5D-ASC Blissful state, Mean (healthy subjects [1]; Psilocybin 10 mg): 59.1 | 5D-ASC Changed meaning of percepts, Mean (healthy subjects [1]; Psilocybin 10 mg): 46.6 | 5D-ASC Complex imagery, Mean (healthy subjects [1]; Psilocybin 10 mg): 53.0 | 5D-ASC Disembodiment, Mean (healthy subjects [1]; Psilocybin 10 mg): 52.7 | 5D-ASC Dread of ego dissolution, Mean (healthy subjects [1]; Psilocybin 10 mg): 21.7 | 5D-ASC Elementary imagery, Mean (healthy subjects [1]; Psilocybin 10 mg): 76.5 | 5D-ASC Experience of unity, Mean (healthy subjects [1]; Psilocybin 10 mg): 54.4 | 5D-ASC Impaired control and cognition, Mean (healthy subjects [1]; Psilocybin 10 mg): 27.9 | 5D-ASC Insightfulness, Mean (healthy subjects [1]; Psilocybin 10 mg): 53.9 | 5D-ASC Oceanic boundlessness, Mean (healthy subjects [1]; Psilocybin 10 mg): 55.7 | 5D-ASC Spiritual experience, Mean (healthy subjects [1]; Psilocybin 10 mg): 48.7 | 5D-ASC Vigilance reduction, Mean (healthy subjects [1]; Psilocybin 10 mg): 35.3 | 5D-ASC Visual restructuralisation, Mean (healthy subjects [1]; Psilocybin 10 mg): 59.1 | 5D-ASC Anxiety, Mean difference (healthy subjects [1]; Psilocybin 10 mg-Placebo): 14.6 | 5D-ASC Audio-visual synaesthesia, Mean difference (healthy subjects [1]; Psilocybin 10 mg-Placebo): 66.6 | 5D-ASC Auditory alteration, Mean difference (healthy subjects [1]; Psilocybin 10 mg-Placebo): 18.6 | 5D-ASC Blissful state, Mean difference (healthy subjects [1]; Psilocybin 10 mg-Placebo): 50.9 | 5D-ASC Changed meaning of percepts, Mean difference (healthy subjects [1]; Psilocybin 10 mg-Placebo): 44.4 | 5D-ASC Complex imagery, Mean difference (healthy subjects [1]; Psilocybin 10 mg-Placebo): 48.6 | 5D-ASC Disembodiment, Mean difference (healthy subjects [1]; Psilocybin 10 mg-Placebo): 45.8 | 5D-ASC Dread of ego dissolution, Mean difference (healthy subjects [1]; Psilocybin 10 mg-Placebo): 20.5 | 5D-ASC Elementary imagery, Mean difference (healthy subjects [1]; Psilocybin 10 mg-Placebo): 63.6 | 5D-ASC Experience of unity, Mean difference (healthy subjects [1]; Psilocybin 10 mg-Placebo): 47.1 | 5D-ASC Impaired control and cognition, Mean difference (healthy subjects [1]; Psilocybin 10 mg-Placebo): 26.2 | 5D-ASC Insightfulness, Mean difference (healthy subjects [1]; Psilocybin 10 mg-Placebo): 47.6 | 5D-ASC Oceanic boundlessness, Mean difference (healthy subjects [1]; Psilocybin 10 mg-Placebo): 47.7 | 5D-ASC Spiritual experience, Mean difference (healthy subjects [1]; Psilocybin 10 mg-Placebo): 44.6 | 5D-ASC Vigilance reduction, Mean difference (healthy subjects [1]; Psilocybin 10 mg-Placebo): 20.0 | 5D-ASC Visual restructuralisation, Mean difference (healthy subjects [1]; Psilocybin 10 mg-Placebo): 52.6 | 5D-ASC Anxiety, Mean (healthy subjects [1]; Psilocybin 25 mg): 32.4 | 5D-ASC Audio-visual synaesthesia, Mean (healthy subjects [1]; Psilocybin 25 mg): 75.4 | 5D-ASC Auditory alteration, Mean (healthy subjects [1]; Psilocybin 25 mg): 30.7 | 5D-ASC Blissful state, Mean (healthy subjects [1]; Psilocybin 25 mg): 61.9 | 5D-ASC Changed meaning of percepts, Mean (healthy subjects [1]; Psilocybin 25 mg): 46.1 | 5D-ASC Complex imagery, Mean (healthy subjects [1]; Psilocybin 25 mg): 64.9 | 5D-ASC Disembodiment, Mean (healthy subjects [1]; Psilocybin 25 mg): 53.8 | 5D-ASC Dread of ego dissolution, Mean (healthy subjects [1]; Psilocybin 25 mg): 31.9 | 5D-ASC Elementary imagery, Mean (healthy subjects [1]; Psilocybin 25 mg): 76.9 | 5D-ASC Experience of unity, Mean (healthy subjects [1]; Psilocybin 25 mg): 60.9 | 5D-ASC Impaired control and cognition, Mean (healthy subjects [1]; Psilocybin 25 mg): 32.7 | 5D-ASC Insightfulness, Mean (healthy subjects [1]; Psilocybin 25 mg): 64.4 | 5D-ASC Oceanic boundlessness, Mean (healthy subjects [1]; Psilocybin 25 mg): 62.9 | 5D-ASC Spiritual experience, Mean (healthy subjects [1]; Psilocybin 25 mg): 57.9 | 5D-ASC Vigilance reduction, Mean (healthy subjects [1]; Psilocybin 25 mg): 45.7 | 5D-ASC Visual restructuralisation, Mean (healthy subjects [1]; Psilocybin 25 mg): 65.2 | 5D-ASC Anxiety, Mean difference (healthy subjects [1]; Psilocybin 25 mg-10 mg): 16.7 | 5D-ASC Audio-visual synaesthesia, Mean difference (healthy subjects [1]; Psilocybin 25 mg-10 mg): 0.7 | 5D-ASC Auditory alteration, Mean difference (healthy subjects [1]; Psilocybin 25 mg-10 mg): 10.5 | 5D-ASC Blissful state, Mean difference (healthy subjects [1]; Psilocybin 25 mg-10 mg): 2.8 | 5D-ASC Changed meaning of percepts, Mean difference (healthy subjects [1]; Psilocybin 25 mg-10 mg): −0.5 | 5D-ASC Complex imagery, Mean difference (healthy subjects [1]; Psilocybin 25 mg-10 mg): 11.9 | 5D-ASC Disembodiment, Mean difference (healthy subjects [1]; Psilocybin 25 mg-10 mg): 1.1 | 5D-ASC Dread of ego dissolution, Mean difference (healthy subjects [1]; Psilocybin 25 mg-10 mg): 10.1 | 5D-ASC Elementary imagery, Mean difference (healthy subjects [1]; Psilocybin 25 mg-10 mg): 0.4 | 5D-ASC Experience of unity, Mean difference (healthy subjects [1]; Psilocybin 25 mg-10 mg): 6.5 | 5D-ASC Impaired control and cognition, Mean difference (healthy subjects [1]; Psilocybin 25 mg-10 mg): 4.7 | 5D-ASC Insightfulness, Mean difference (healthy subjects [1]; Psilocybin 25 mg-10 mg): 10.5 | 5D-ASC Oceanic boundlessness, Mean difference (healthy subjects [1]; Psilocybin 25 mg-10 mg): 7.2 | 5D-ASC Spiritual experience, Mean difference (healthy subjects [1]; Psilocybin 25 mg-10 mg): 9.2 | 5D-ASC Vigilance reduction, Mean difference (healthy subjects [1]; Psilocybin 25 mg-10 mg): 10.3 | 5D-ASC Visual restructuralisation, Mean difference (healthy subjects [1]; Psilocybin 25 mg-10 mg): 6.1 | 5D-ASC Anxiety, Mean difference (healthy subjects [1]; Psilocybin 25 mg-Placebo): 31.3 | 5D-ASC Audio-visual synaesthesia, Mean difference (healthy subjects [1]; Psilocybin 25 mg-Placebo): 67.3 | 5D-ASC Auditory alteration, Mean difference (healthy subjects [1]; Psilocybin 25 mg-Placebo): 29.1 | 5D-ASC Blissful state, Mean difference (healthy subjects [1]; Psilocybin 25 mg-Placebo): 53.6 | 5D-ASC Changed meaning of percepts, Mean difference (healthy subjects [1]; Psilocybin 25 mg-Placebo): 43.9 | 5D-ASC Complex imagery, Mean difference (healthy subjects [1]; Psilocybin 25 mg-Placebo): 60.5 | 5D-ASC Disembodiment, Mean difference (healthy subjects [1]; Psilocybin 25 mg-Placebo): 46.9 | 5D-ASC Dread of ego dissolution, Mean difference (healthy subjects [1]; Psilocybin 25 mg-Placebo): 30.6 | 5D-ASC Elementary imagery, Mean difference (healthy subjects [1]; Psilocybin 25 mg-Placebo): 64.0 | 5D-ASC Experience of unity, Mean difference (healthy subjects [1]; Psilocybin 25 mg-Placebo): 53.6 | 5D-ASC Impaired control and cognition, Mean difference (healthy subjects [1]; Psilocybin 25 mg-Placebo): 30.9 | 5D-ASC Insightfulness, Mean difference (healthy subjects [1]; Psilocybin 25 mg-Placebo): 58.2 | 5D-ASC Oceanic boundlessness, Mean difference (healthy subjects [1]; Psilocybin 25 mg-Placebo): 54.9 | 5D-ASC Spiritual experience, Mean difference (healthy subjects [1]; Psilocybin 25 mg-Placebo): 53.7 | 5D-ASC Vigilance reduction, Mean difference (healthy subjects [1]; Psilocybin 25 mg-Placebo): 30.4 | 5D-ASC Visual restructuralisation, Mean difference (healthy subjects [1]; Psilocybin 25 mg-Placebo): 58.7 | PANAS negative affect, mean increase from baseline (healthy subjects [2]; 25 mg, Day 0 after treatment): 1.3 | PANAS-Negative, change from baseline, Mean (healthy subjects [2]; Psilocybin 10 mg): −0.6 | PANAS-Positive, change from baseline, Mean (healthy subjects [2]; Psilocybin 10 mg): 0.7 | PANAS-Negative, change from baseline, Mean difference (healthy subjects [2]; Psilocybin 10 mg-Placebo): −0.5 | PANAS-Positive, change from baseline, Mean difference (healthy subjects [2]; Psilocybin 10 mg-Placebo): 5.7 | PANAS-Negative, change from baseline, Mean (healthy subjects [2]; Psilocybin 25 mg): 1.3 | PANAS-Positive, change from baseline, Mean (healthy subjects [2]; Psilocybin 25 mg): −0.4 | PANAS-Negative, change from baseline, Mean difference (healthy subjects [2]; Psilocybin 25 mg-10 mg): 1.9 | PANAS-Positive, change from baseline, Mean difference (healthy subjects [2]; Psilocybin 25 mg-10 mg): −1.0 | PANAS-Negative, change from baseline, Mean difference (healthy subjects [2]; Psilocybin 25 mg-Placebo): 1.4 | PANAS-Positive, change from baseline, Mean difference (healthy subjects [2]; Psilocybin 25 mg-Placebo): 4.6
